Data reported in patent US6770787B2, “Heavier halogen atom substituted squaraine based dyes, process for the preparation thereof and use thereof as sensitizers for photodynamic, therapeutical and industrial applications” (priority 2001, dated 2004).
Where two headings read alike, the source gives them in different places.

Experiments:
AS52 cells [1] = assay: mutagenicity, gpt locus, 6-thioguanine resistant cells; type: cell-based
Description: The mutagenic properties of squaraine based sensitizers was measured in AS52 cells, which carry the bacterial guanine phosphoribosyltraiisferase (gpt) gene as a selection marker that confers sensitivity to 6-thioguanine. AS52 cells were cultured in cleansing medium containing 11 μg/ml xanthine 219 μg/ml xanthine, 22 μg/ml adenine, 1.2 μg/ml aminopterin and 8.8 μg/ml mycophenolic acid) for one week to eliminate spontaneous gpt mutants. […] During this time, exponential growth of cells was maintained. 2×10^5 cells were diluted in 10 ml culture medium and plated in petri dishes (94 mm) After 2 h, 6-thioguanine was added to each plate (final concentration 2.5 μg/ml) for selection. 200 cells were added in 5 ml culture medium and plated in petri dishes (60 mm) to determine the cloning efficiencies. The plates were incubated for 7 to 9 days. The medium was replaced by NaCl solution (0.9% v/v), the cell colonies were fixed with methanol (−20° C.) for 15 min and stained with Giemsa (10% in H2O) for 15 min. The subsequent quantification of 6-thioguanine resistant cells and the determination of cytotoxicity (ratio of the plating efficiences of treated and untreated cells) directly after exposure to squaraines plus light carried out according to the protocol (Tindall, K. R.; Stankowski Jr. L. F.; Machanoff, R.; Hsie, A. W. Mutat. Res. 1986, 160, 121-131).

[2] = photosensitized singlet oxygen generation in presence and absence of polyvinylpyrrolidone; type: physicochemical
Excerpt: Because triplet excited states were the major transient intermediates obtained upon 532 nm laser flash photolysis studies of bis(3,5-dibromo-2,4,6-trihydroxyphenyl)squaraine and bis(3,5-diiodo-2,4,6-trihydroxyphenyl)squaraine, the efficiency of photosensitized singlet oxygen generation by these systems have been examined, since singlet oxygen is the main cytotoxic agent of the type II reactions in photodynamic therapy. Since singly deprotonated forms of bis(3,5-dibromo-2,4,6-trihydroxyphenyl)squaraine and bis(3,5-diiodo-2,4,6-trihydroxyphenyl)squaraine, have significant triplet yields and have long lifetimes (Ramaiah, D; Joy, A.; Chandrasekhar, N; Eldho, N. V.; Das, S.; George, M. V. Photochem. Photobiol. 1997, 65, 783), moreover these are the forms that are expected to be the predominant species under the biological pH conditions (around 7.4). The first level characterization of these dyes for using them as sensitizers in photodynamic therapy, we have investigated their efficiency of singlet oxygen generation in presence of drug carriers, membrane mimics and microheterogeneous media. Results obtained in presence of polyvinylpyrrolidone (PVP) using bis(3,5-dibromo-2,4,6-trihydroxyphenyl)squaraine and bis(3,5-diiodo-2,4,6-trihydroxyphenyl)squaraine are shown in TABLE 1.

PM2 DNA [3] = assay: plasmid DNA cleavage (DNA relaxation assay, single strand breaks) by dye plus light; type: biochemical; conditions: SSB in phosphate buffer pH 7.4 without additive = 100%
[4] = stability under irradiation conditions (photobleaching) in buffer; type: physicochemical; conditions: for Absorbance: 1000 W halogen lamp; for photobleaching: within 5 min of irradiation, buffer pH 7.4
Description: (§1) The information about the stability of the sensitizer in presence and absence of light is important for its practical use. Therefore, the stability of these dyes in presence and absence of light in ethanol and phosphate buffer at physiological pH conditions (pH 7.4) at 25° C. was studied by following the absorbance change using spectrophotometry. The results of change in absorbance vs time in the dark with representative squaraine based dyes bis(3,5-dibromo-2,4,6-trihydroxyphenyl)squaraine and bis(3,5-diiodo-2,4,6-trihydroxyphenyl)squaraine are shown in TABLE 3.
Compound bis(3,5-diiodo-2,4,6-trihydroxyphenyl)squaraine undergoes very fast photobleaching (nearly 50% within 5 min of irradiation), when compared to bis(3,5-dibromo-2,4,6-trihydroxyphenyl)squaraine (25%). The photobleaching was increased with the time of irradiation in both the cases. While photobleaching might be thought to be disadvantageous property in a tumor photosensitizer, but it has potential benefits since dosage can be adjusted to keep the photosensitizer in tumor at effective levels. Moreover because of their fast photobleaching, a patient after the photodynamic treatment is not required to stay in the dark for long periods of time and if required therapy can be repeated frequently with short intervals of time.

[5] = solubility at physiological pH; conditions: physiological pH conditions
AS52 cells [6] = assay: cell killing efficiency (cytotoxicity) with and without light; type: cell-based; conditions: for cytotoxicity (cell survival): in the dark; for cell killing efficiency (% of cell survival): under illumination conditions, increasing concentration
Description: To measure the cell killing efficiency (cytotoxicity) of squaraine based sensitizers with and without light, AS52 cells were exposed to various concentrations of sensitizer. The light exposure was carried out from a 1000 W halogen lamp at a distance of 33 cm in Ca^2+ and Mg^2+ free PBS (140 mM NaCl, 3 mM KCl, 8 mM Na2HPO4, pH 7.4) on ice (10^6 cells/ml). […] The cells were pelleted by centrifugation and resuspended in PBSG three times. The cells were resuspended at 3×10^4 cells/ml in fresh medium at 37° C. and the number of cells were counted repeatedly for 60 h. From the exponential part of the growth curves (between 24 and 60 h), the number of poliferating cells at the time of resuspension was calculated by extrapolation. Cell survival was defined as the ratio between proliferating and resuspended cells.

PM2 DNA [7] = assay: plasmid DNA cleavage (DNA relaxation assay, single strand breaks) by dye plus light; type: biochemical; conditions: for Relative number of single strand breaks (%): SSB in phosphate buffer pH 7.4 without additive = 100%; for fold enhancement in the cleavage of DNA: in D2O
Excerpt: The mechanism of in vitro photodynamic activity of squaraines has been evaluated in detail by using plasmid DNA (PM2 DNA) and investigating the cleavage of DNA under a variety of conditions. Cleavage of DNA cleavage was followed by monitoring the conversion of supercoiled (Form I) to open circular (Form II) and linear forms (Form III). Induction of one single strand break by a compound/agent converts Form I to Form II and the quantification of these forms by DNA relaxation assay as described previously (Epe, B.; Hegler, J. J. Methods Enzymol. 1994, 234, 122) indicates its efficiency of DNA cleavage. Plasmid DNA cleavage is a very sensitive technique, which can be used to test the various properties of sensitizers and the DNA damage profiles obtained by using scavengers and activators can serve as a kind of fingerprint of the species directly responsible for the damage and also provide the information on the mechanism of in vitro photodynamic activity.
PM2 DNA (10,000 bp, 10 μg/mL) exposed to squaraine dyes plus light from a 1000 W halogen lamp (Philips PF811) at a distance of 33 cm in phosphate buffer (5 mM KH2PO4, 50 mM NaCl, pH 7.4) on ice. The modified DNA was precipitated by ethanol/sodium acetate and quantified the single strand breaks (SSB) by DNA relaxation assay. Superoxide dismutase (SOD) (20 μg/ml), catalase (315 U/ml) were added or the H2O in the buffer was replaced by D2O (the final isotope purity was greater than 96%) to have a better understanding of the active species involved. The results of these studies with representative squaraine based dyes bis(3,5-dibromo-2,4,6-trihydroxyphenyl)squaraine and bis(3,5-diiodo-2,4,6-trihydroxyphenyl)squaraine are shown in TABLE 2.

AS52 cells [8] = assay: induction of micronuclei; type: cell-based
Description: Further to understand the genetic effects, the micronuclei induced by bis(3,5-dibromo-2,4,6-trihydroxyphenyl)squaraine and bis(3,5-diiodo-2,4,6-trihydroxyphenyl)squaraine were also quantified in AS52 cells. AS52 cells were exposed to squaraines as described above and resuspended in full medium. After incubation for 24 h at 39° C., approximately 1×10^5 cells were fixed on a microscope slide by cytospin-centrifugation and treatment with methanol for 1 h at −21° C. After staining with bisbenzimide for 3 min in PBS (without Ca2+ and Mg2+), 2000 cells were examined for the presence of micronuclei with a fluorescent microscope.

[9] = stability in the dark in ethanol and phosphate buffer (absorbance change); type: physicochemical; conditions: for Absorbance: 25° C.
Description: as §1

[10] = buffer pH 7.4, irradiation time 0 min
[11] = buffer pH 7.4, irradiation time 5 min
[12] = buffer pH 7.4, irradiation time 10 min
[13] = buffer pH 7.4, irradiation time 15 min
[14] = buffer pH 7.4, irradiation time 20 min
[15] = buffer pH 7.4, irradiation time 30 min

Compound	singlet oxygen quantum yields ([2]; PVP 0 mM)	singlet oxygen quantum yields ([2]; PVP 14 mM)	Relative number of single strand breaks (%) (PM2 DNA [3]; PH 7.8)	Relative number of single strand breaks (%) (PM2 DNA [3]; pH 7.0)	Absorbance [4, 10]	Absorbance [4, 11]	Absorbance [4, 12]	Absorbance [4, 13]	Absorbance [4, 14]	Absorbance [4, 15]	photobleaching [4] [%]	solubility [5]	cytotoxicity (cell survival) (AS52 cells [6])	cell killing efficiency (% of cell survival) (AS52 cells [6])	Relative number of single strand breaks (%) (PM2 DNA [7]; Catalase (315 U/mL))	Relative number of single strand breaks (%) (PM2 DNA [7]; D2O Buffer)	Relative number of single strand breaks (%) (PM2 DNA [7]; SOD (20 g/mL))	fold enhancement in the cleavage of DNA (PM2 DNA [7])	Absorbance ([9]; buffer pH 7.4, dark, 0 min)	Absorbance ([9]; buffer pH 7.4, dark, 30 min)	other results
O=C1C(Br)=C(O)C(=C2C(=O)C(c3c(O)c(Br)c(O)c(Br)c3O)=C2O)C(O)=C1Br [bis(3,5-dibromo-2,4,6-trihydroxyphenyl)squaraine]	0.13 ± 0.005	0.29 ± 0.001	105 ± 4	127 ± 12	1.8	1.35	1.30	1.25	1.17	1.10	25	good solubility	no significant effect	high cell killing efficiency	115 ± 5	526 ± 28	109 ± 5	Nearly five	1.84	1.72	induction of mutations (6-thioguanine resistant cells) (AS52 cells [1]): do not induce immediate mutations; induction of micronuclei (AS52 cells [8]): do not induce significant amounts of micronuclei; stability in the dark [9]: very stable; Absorbance ([9]; buffer pH 7.4, dark, 60 min): 1.65; Absorbance ([9]; buffer pH 7.4, dark, 90 min): 1.61; Absorbance ([9]; ethanol, dark, 0 min): 1.90; Absorbance ([9]; ethanol, dark, 30 min): 1.88; Absorbance ([9]; ethanol, dark, 60 min): 1.88; Absorbance ([9]; ethanol, dark, 90 min): 1.88
O=C1C(I)=C(O)C(=C2C(=O)C(c3c(O)c(I)c(O)c(I)c3O)=C2O)C(O)=C1I [bis(3,5-diiodo-2,4,6-trihydroxyphenyl)squaraine]	0.47 ± 0.017	0.62 ± 0.007	109 ± 22	134 ± 9	1.72	0.87	0.74	0.65	0.58	0.47	~50	good solubility	no significant effect	high cell killing efficiency	92 ± 6	614 ± 97	100 ± 2	six fold	1.35	1.47	induction of mutations (6-thioguanine resistant cells) (AS52 cells [1]; in presence and absence of light): do not induce immediate mutations; cytotoxicity (ratio of plating efficiencies) (AS52 cells [1]; in presence of light): severe cytotoxicity; increase in efficiency of singlet oxygen generation ([2]; in microheterogeneous media compared with methanol): ~15%; induction of micronuclei (AS52 cells [8]; in presence and absence of light, 24 h incubation): do not induce significant amounts of micronuclei; Absorbance ([9]; buffer pH 7.4, dark, 60 min): 1.38; Absorbance ([9]; buffer pH 7.4, dark, 90 min): 1.36; stability in the dark ([9]; buffer solutions at pH 7.4, 90 min): slight bleaching; stability in the dark ([9]; ethanol): very stable
